Experiments:
human GST-DYRK1A = target: T1, human GST-DYRK1A (Homo sapiens, UniProt Q13627); assay: GST-DYRK1A enzyme inhibition, ADP-Glo kinase assay; assay type: biochemical; conditions: ATP 10 μM, GST-DYRK1A full length, read-out: DYRK1 IC50
T1 construct: purified human GST-DYRK1A (full length, Thermo Scientifics) enzyme; purchased Thermo Scientifics
Outline: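 Full-length human GST-DYRK1A (10 ng) with 10 μM ATP and specific substrate in 40 mM Tris-HCl pH 7.4, 20 mM MgCl2, 0.5 mg/mL BSA, 50 μM DTT, 1 h at 25 °C. ADP formation read by ADP-Glo luminescence relative to solvent control; IC50 from three data sets.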

human GST-CLK1 = target: T2, human GST-CLK1 (Homo sapiens, UniProt P49759); assay: GST-CLK1 enzyme inhibition, ADP-Glo kinase assay; assay type: biochemical; conditions: ATP 10 μM, GST-CLK1 129-end
T2 construct: purified human GST-CLK1 (129-end, SignalChem) enzyme; purchased SignalChem
Outline: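 Human GST-CLK1 (129-end, 3 ng) reacted with substrate and 10 μM ATP for 1 h at 25° C in 40 mM Tris-HCl pH 7.4, 20 mM MgCl2, 0.5 mg/mL BSA, 50 μM DTT. ADP-Glo luminescence was normalised to solvent control; IC50 (nM) from 3 data sets.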

T2 sequence (P49759 129-484 limits assumed): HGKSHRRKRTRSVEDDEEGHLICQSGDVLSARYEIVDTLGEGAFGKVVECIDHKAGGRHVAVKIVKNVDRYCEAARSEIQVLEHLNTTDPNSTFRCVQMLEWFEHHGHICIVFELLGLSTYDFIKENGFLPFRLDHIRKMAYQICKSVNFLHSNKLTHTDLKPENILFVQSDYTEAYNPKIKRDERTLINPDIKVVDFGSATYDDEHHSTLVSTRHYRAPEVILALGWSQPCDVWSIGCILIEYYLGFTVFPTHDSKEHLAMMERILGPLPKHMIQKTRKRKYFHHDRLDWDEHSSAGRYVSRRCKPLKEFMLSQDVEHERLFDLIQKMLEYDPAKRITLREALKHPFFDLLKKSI

SMILES | IC50 (human GST-DYRK1A) [nM] | IC50 (human GST-CLK1) [nM]
COc1cc(P2(=O)CCN(C3COC3)CC2)ccc1Nc1nc(NC2CCCCC2)c2cc[nH]c2n1 [Example 240, 4-(4-((4-(cyclohexylamino)-7H-pyrrolo[2,3-d]pyrimidin-2-yl)amino)-3-methoxyphenyl)-1-(oxetan-3-yl)-1,4-azaphosphinane 4-oxide] | 301 to 1000 | 301 to 1000
COc1cc(P(C)(C)=O)ccc1Nc1nc(N[C@H]2CCOC2)c2c(C#N)c[nH]c2n1 [Example 271, (S)-2-((4-(dimethylphosphoryl)-2-methoxyphenyl)amino)-4-((tetrahydrofuran-3-yl)amino)-7H-pyrrolo[2,3-d]pyrimidine-5-carbonitrile] | 301 to 1000 | 101 to 300
COc1cc(P2(=O)CCN(C3COC3)CC2)ccc1Nc1nc(N[C@@H]2CCOC2)c2c(C#N)c[nH]c2n1 [Example 299, (R)-2-((2-methoxy-4-(1-(oxetan-3-yl)-4-oxido-1,4-azaphosphinan-4-yl)phenyl)amino)-4-((tetrahydrofuran-3-yl)amino)-7H-pyrrolo[2,3-d]pyrimidine-5-carbonitrile] | 301 to 1000 | 101 to 300
COc1cc(P2(=O)CCN(C3CCOCC3)CC2)ccc1Nc1nc(NC2CCCCC2)c2c(C#N)c[nH]c2n1 [Example 324, 4-(cyclo-hexylamino)-2-((2-methoxy-4-(4-oxido-1-(tetrahydro-2H-pyran-4-yl)-1,4-azaphosphinan-4-yl)phenyl)amino)-7H-pyrrolo[2,3-d]pyrimidine-5-carbonitrile] | 301 to 1000 | < 100
COc1cc(P2(=O)CCN(C3CC3)CC2)ccc1Nc1nc(NCCS(C)(=O)=O)c2c(C#N)c[nH]c2n1 [Example 310, 2-((4-(1-cycloproopyl-4-oxido-1,4-azaphosphinan-4-yl)-2-methoxyphenyl)a-mino)-4-((2-(methylsulfonyl)ethyl)amino)-7H-pyrrolo[2,3-d]pyrimidine-5-carbonitrile] | 301 to 1000 | 101 to 300
CC[C@H](C)Nc1nc(Nc2ccc(S(=O)(=O)N3CCOCC3)cc2OC)nc2[nH]cc(C(F)(F)F)c12 [Example 379, (S)-N^4-(sec-butyl)-N^2-(2-methoxy-4-(morpholino-sulfonyl)phenyl)-5-(trifluoromethyl)-7H-pyrrolo[2,3-d]pyrimidine-2,4-diamine] | 301 to 1000 | 301 to 1000
CC[C@@H](C)Nc1nc(Nc2ccc(P(C)(C)=O)cc2OC)nc2[nH]cc(C#N)c12 [Example 266, (R)-4-(sec-butylamino)-2-((4-(dimethylphosphoryl)-2-methoxyphenyl)amino)-7H-pyrrolo[2,3-d]pyrimidine-5-carbonitrile] | 101 to 300 | < 100
COCCNc1nc(Nc2ccc(P3(=O)CCN(C4COC4)CC3)cc2OC)nc2[nH]cc(C#N)c12 [Example 312, 2-((2-methoxy-4-(1-(oxetan-3-yl)-4-oxido-1,4-azaphosphinan-4-yl)phenyl)amino)-4-((2-methoxyethyl)amino)-7H-pyrrolo[2,3-d]pyrimidine-5-carbonitrile] | 101 to 300 | < 100
COc1cc(P2(=O)CCN(C3COC3)CC2)ccc1Nc1nc(NC2CCCC2)c2cc[nH]c2n1 [Example 239, 4-(4-((4-(cyclopentylamino)-7H-pyrrolo[2,3-d]pyrimidin-2-yl)amino)-3-methoxyphenyl)-1-(oxetan-3-yl)-1,4-azaphosphinane 4-oxide] | 301 to 1000 | 301 to 1000
COc1cc(P(C)(C)=O)ccc1Nc1nc(NC2COC2)c2c(C#N)c[nH]c2n1 [Example 276, 2-((4-(dimethylphosphoryl)-2-methoxyphenyl)amino)-4-(oxetan-3-ylamino)-7H-pyrrolo[2,3-d]pyrimidine-5-carbonitrile] | 301 to 1000 | 301 to 1000

Results, then the molecule that gave them:

IC50 (human GST-DYRK1A) [nM] | IC50 (human GST-CLK1) [nM] | SMILES
301 to 1000 | < 100 | CC(C)Nc1nc(Nc2ccc(C(=O)N3CCOCC3)c3c2OCC3)nc2[nH]cc(C#N)c12 [Example 352, 4-(isopropyl-amino)-2-((4-(morpholine-4-carbonyl)-2,3-dihydro-benzofuran-7-yl)amino)-7H-pyrrolo[2,3-d]pyrimidine-5-carbonitrile]
301 to 1000 | < 100 | N#Cc1c[nH]c2nc(Nc3ccc(C(=O)N4CC(CO)(CO)C4)c4c3OCCO4)nc(NC3CCC3)c12 [Example 333, 2-((8-(3,3-bis (hydroxymethyl)azetidine-1-carbonyl)-2,3-dihydrobenzo[b] [1,4]dioxin-5-yl)amino)-4-(cyclobutyl-amino)-7H-pyrrolo[2,3-d]pyrimidine-5-carbonitrile]
301 to 1000 | 101 to 300 | CCCNc1nc(Nc2ccc(P3(=O)CCN(C4COC4)CC3)cc2OC)nc2[nH]cc(C#N)c12 [Example 283, 2-((2-methoxy-4-(1-(oxetan-3-yl)-4-oxido-1,4-azaphosphinan-4-yl)phenyl)amino)-4-(propylamino)-7H-pyrrolo[2,3-d]pyrimidine-5-carbonitrile]
301 to 1000 | 301 to 1000 | COc1cc(P(C)(C)=O)ccc1Nc1nc(NC2CCOCC2)c2c(C#N)c[nH]c2n1 [Example 272, 2-((4-(dimethylphosphoryl)-2-methoxyphenyl)amino)-4-((tetrahydro-2H-pyran-4-yl)amino)-7H-pyrrolo[2,3-d]pyrimidine-5-carbonitrile]
301 to 1000 | 301 to 1000 | O=C(c1ccc(Nc2nc(NCC3CCCC3)c3c(C(F)(F)F)c[nH]c3n2)c2c1OCCO2)N1CCOCC1 [Example 205, (8-((4-((cyclopentylmethyl)amino)-5-(trifluoromethyl)-7H-pyrrolo[2,3-d]pyrimidin-2-yl)amino)-2,3-dihydrobenzo[b][1,4]dioxin-5-yl)(morpholino)methanone]
301 to 1000 | < 100 | N#Cc1c[nH]c2nc(Nc3ccc(C(=O)N4CC(CO)(CO)C4)c4c3OCCO4)nc(NC3CCCC3)c12 [Example 334, 2-((8-(3,3-bis (hydroxymethyl)azetidine-1-carbonyl)-2,3-dihydrobenzo[b] [1,4]dioxin-5-yl)amino)-4-(cyclopentyl-amino)-7H-pyrrolo[2,3-d]pyrimidine-5-carbonitrile]
301 to 1000 | 301 to 1000 | CNc1nc(Nc2ccc(P3(=O)CCN(C4COC4)CC3)cc2OC)nc2[nH]cc(C#N)c12 [Example 154, 2-((2-methoxy-4-(1-(oxetan-3-yl)-4-oxido-1,4-azaphosphinan-4-yl)phenyl)amino)-4-(methylamino)-7H-pyrrolo[2,3-d]pyrimidine-5-carbonitrile]
301 to 1000 | < 100 | O=C(c1ccc(Nc2nc(NCC3CC3)c3c(C(F)(F)F)c[nH]c3n2)c2c1OCCO2)N1CCOCC1 [Example 201, (8-((4-((cyclopropylmethyl)amino)-5-(trifluoromethyl)-7H-pyrrolo[2,3-d]pyrimidin-2-yl)amino)-2,3-dihydrobenzo[b][1,4]dioxin-5-yl)(morpholino)methanone]
101 to 300 | < 100 | N#Cc1c[nH]c2nc(Nc3ccc(C(=O)N4CC(CO)(CO)C4)c4c3OCCO4)nc(N[C@@H]3CCOC3)c12 [Example 335, (R)-2-((8-(3,3-bis(hydroxy-methyl)azetidine-1-carbonyl)-2,3-dihydrobenzo[b] [1,4]dioxin-5-yl)amino)-4-((tetrahydrofuran-3-yl)amino)-7H-pyrrolo[2,3-d]pyrimidine-5-carbonitrile]
101 to 300 | 301 to 1000 | O=C(c1ccc(Nc2nc(NCC3CCC3)c3c(C(F)(F)F)c[nH]c3n2)c2c1CCO2)N1CCC(N2CCOCC2)CC1 [Example 462, (7-((4-((cyclo-butylmethyl)amino)-5-(trifluoromethyl)-7H-pyrrolo[2,3-d]pyrimidin-2-yl)amino)-2,3-dihydrobenzo-furan-4-yl)(4-morpho-linopiperidin-1-yl)methanone]
101 to 300 | 301 to 1000 | O=C(c1ccc(Nc2nc(NC3CCCCC3)c3c(C(F)(F)F)c[nH]c3n2)c2c1OCCO2)N1CCC(N2CCOCC2)CC1 [Example 204, (8-((4-(cyclohexylamino)-5-(trifluoromethyl)-7H-pyrrolo[2,3-d]pyrimidin-2-yl)amino)-2,3-dihydrobenzo[b][1,4]dioxin-5-yl)(4-morpholinopiperidin-1-yl)methanone]
301 to 1000 | < 100 | CC[C@@H](C)Nc1nc(Nc2ccc(C(=O)N3CC(CO)(CO)C3)c3c2OCCO3)nc2[nH]cc(C#N)c12 [Example 330, (R)-2-((8-(3,3-bis(hydroxy-methyl)azetidine-1-carbonyl)-2,3-dihydrobenzo[b] [1,4]dioxin-5-yl)amino)-4-(sec-butylamino)-7H-pyrrolo[2,3-d]pyrimidine-5-carbonitrile]
301 to 1000 | < 100 | N#Cc1c[nH]c2nc(Nc3ccc(C(=O)N4CCN(C5COC5)CC4)c4c3OCCO4)nc(NC3CC3)c12 [Example 287, 4-(cyclo-propylamino)-2-((8-(4-(oxetan-3-yl)piperazine-1-carbonyl)-2,3-dihydrobenzo[b] [1,4]dioxin-5-yl)amino)-7H-pyrrolo[2,3-d]pyrimidine-5-carbonitrile]
301 to 1000 | < 100 | CC[C@@H](C)Nc1nc(Nc2ccc(P3(=O)CCN(C4CC4)CC3)cc2OC)nc2[nH]cc(C#N)c12 [Example 294, (R)-4-(sec-butylamino)-2-((4-(1-cyclopropyl-4-oxido-1,4-azaphosphinan-4-yl)-2-methoxyphenyl)a-mino)-7H-pyrrolo[2,3-d]pyrimidine-5-carbonitrile]

— US20230066011A1, “PYRROLOPYRIMIDINE DERIVATIVE, AND PHARMACEUTICAL COMPOSITION FOR PREVENTING OR TREATING PROTEIN KINASE-RELATED DISEASE COMPRISING SAME AS ACTIVE INGREDIENT” (VORONOI CO., LTD., priority 2019, published 2023)
